Laboratory results from publication PMC8188423, “Investigating the phosphinic acid tripeptide mimetic DG013A as a tool compound inhibitor of the M1-aminopeptidase ERAP1” (Bioorganic & Medicinal Chemistry Letters, 2021).
pIC50: −log10 of the molar value. Like-named read-outs stand apart in the source and are kept apart here.

Key:
[1] = Caco-2 permeability assay; format: in vitro ADME, human; conditions: human; for recovery at 2 h, 10 μM: Caco-2, pH 7.4, SI table; for Papp B→A at 2 h, 10 μM / Papp A→B at 2 h, 10 μM: Caco-2, pH 7.4; for Papp B→A at 2 h, 10 μM: SI table; for Papp A→B at 2 h, 10 μM: apical to basolateral, limit of quantification 1.0 x 10^−6 cm/s, read-out: CACO2 Papp A:B
Description: (§1) Whether the inhibition of ERAP1 by 1 would translate to in-cell activity would depend on its permeability, as well as its affinity.
(§2) Papp (apparent permeability) was determined in the Caco-2 human colon carcinoma cell line (ATCC). Cells were maintained (DMEM with 10% fetal bovine serum, penicillin, and streptomycin) in a humidified atmosphere with 5% CO2/95% air for 10 days. Cells were plated out onto a cell culture assembly plate (Millipore, UK), and monolayer confluency was checked using a TEER electrode prior to the assay. Media was washed off and replaced in the appropriate apical and basal wells with HBSS buffer (pH 7.4) containing compound (10 μM, 1% DMSO). The Caco-2 plate was incubated for 2 h at 37 °C, and Lucifer Yellow was used to confirm membrane integrity after the assay. Samples from the apical and basolateral chambers were analyzed using a Waters TQ-S LC-MS/MS system.

[2] = test system: Caco-2 human colon carcinoma cell line; test: Caco-2 permeability assay; format: in vitro ADME; conditions: SI table, remark in Recovery A:B cell
Description: as §1, §2

human ERAP2 = human ERAP2 (Homo sapiens, UniProt Q6P179); test: ERAP2 R-AMC aminopeptidase assay; conditions: ERAP2 10 nM, R-AMC 10 µM, pH8.0, 30 min
Sequence of human ERAP2 (Q6P179 whole entry): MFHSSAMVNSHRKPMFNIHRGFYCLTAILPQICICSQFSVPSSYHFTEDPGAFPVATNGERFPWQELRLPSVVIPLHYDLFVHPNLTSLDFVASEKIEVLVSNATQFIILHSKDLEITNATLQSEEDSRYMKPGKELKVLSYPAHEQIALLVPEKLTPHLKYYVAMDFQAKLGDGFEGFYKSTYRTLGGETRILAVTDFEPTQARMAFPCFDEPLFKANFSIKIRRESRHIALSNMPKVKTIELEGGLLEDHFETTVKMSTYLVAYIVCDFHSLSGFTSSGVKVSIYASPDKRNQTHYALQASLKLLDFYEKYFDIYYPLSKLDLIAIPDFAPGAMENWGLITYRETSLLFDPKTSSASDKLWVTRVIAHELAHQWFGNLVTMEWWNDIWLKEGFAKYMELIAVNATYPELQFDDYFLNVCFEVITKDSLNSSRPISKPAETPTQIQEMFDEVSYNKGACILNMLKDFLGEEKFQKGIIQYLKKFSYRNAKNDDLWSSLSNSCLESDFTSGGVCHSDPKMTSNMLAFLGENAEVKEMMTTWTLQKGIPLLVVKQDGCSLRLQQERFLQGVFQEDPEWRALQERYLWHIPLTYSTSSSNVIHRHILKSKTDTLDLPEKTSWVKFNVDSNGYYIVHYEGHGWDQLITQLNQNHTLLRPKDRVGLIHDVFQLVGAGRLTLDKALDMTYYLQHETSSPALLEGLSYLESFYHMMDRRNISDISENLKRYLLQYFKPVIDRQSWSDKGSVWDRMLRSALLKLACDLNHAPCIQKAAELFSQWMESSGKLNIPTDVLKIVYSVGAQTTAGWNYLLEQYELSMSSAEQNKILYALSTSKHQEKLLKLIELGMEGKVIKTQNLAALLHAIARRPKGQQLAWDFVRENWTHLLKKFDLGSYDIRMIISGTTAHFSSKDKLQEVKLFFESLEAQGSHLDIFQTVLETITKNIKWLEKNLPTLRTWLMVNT

Structure (SMILES) | recovery at 2 h, 10 μM ([1]; read-out: Recovery A:B) | recovery at 2 h, 10 μM ([1]; read-out: Recovery B:A) | Papp B→A at 2 h, 10 μM [1] | Papp A→B at 2 h, 10 μM [1] | stability observation in Caco-2 assay A:B [2] | efflux ratio at 2 h, 10 μM ([1]; Caco-2, pH 7.4, PappB:A/PappA:B, read-out: CACO2 ER (efflux ratio)) | ERAP2 pIC50 ± SEM (human ERAP2) | pIC50 (human ERAP2; read-out: ERAP2 IC50 (geometric mean))
CC(C)C[C@H](CP(=O)(O)[C@@H](N)CCc1ccccc1)C(=O)N[C@@H](Cc1c[nH]c2ccccc12)C(N)=O [DG013A 1, ((S)-2-(((S)-1-amino-3-(1H-indol-3-yl)-1-oxopropan-2-yl)carbamoyl)-4-methylpentyl)((R)-1-amino-3-phenylpropyl)phosphinic acid, reference compound] | 97% | 100% | < 1 ×10⁻⁶ cm/s | < 1 ×10⁻⁶ cm/s | – | – | – | –
CC(C)C[C@@H](CP(=O)(O)[C@@H](N)CCc1ccccc1)C(=O)N[C@@H](Cc1c[nH]c2ccccc12)C(N)=O [DG013B 2, reference compound] | 83% | 90% | < 1 ×10⁻⁶ cm/s | < 1 ×10⁻⁶ cm/s | – | – | – | –

Continued, values first:

recovery at 2 h, 10 μM ([1]; read-out: Recovery A:B) | recovery at 2 h, 10 μM ([1]; read-out: Recovery B:A) | Papp B→A at 2 h, 10 μM [1] | Papp A→B at 2 h, 10 μM [1] | stability observation in Caco-2 assay A:B [2] | efflux ratio at 2 h, 10 μM ([1]; Caco-2, pH 7.4, PappB:A/PappA:B, read-out: CACO2 ER (efflux ratio)) | ERAP2 pIC50 ± SEM (human ERAP2) | pIC50 (human ERAP2; read-out: ERAP2 IC50 (geometric mean)) | Structure (SMILES)
2% | 84% | < 1 ×10⁻⁶ cm/s | < 1 ×10⁻⁶ cm/s | Ester hydrolysis observed | – | – | – | COC(=O)[C@H](Cc1c[nH]c2ccccc12)NC(=O)C(CC(C)C)CP(=O)(O)[C@@H](N)CCc1ccccc1 (stereo in doubt) [compound 17, ((R)-2-(((S)-3-(1H-indol-3-yl)-1-methoxy-1-oxopropan-2-yl)carbamoyl)-4-methylpentyl)((R)-1-amino-3-phenylpropyl)phosphinic acid]
83% | 96% | < 1 ×10⁻⁶ cm/s | < 1 ×10⁻⁶ cm/s | – | – | – | – | CC(C)CC(CP(=O)(O)[C@@H](N)CCc1ccccc1)C(=O)N[C@@H](Cc1c[nH]c2ccccc12)C(=O)O (stereo in doubt) [compound 18, ((2R)-2-((((R)-1-amino-3-phenylpropyl)(hydroxy)phosphoryl)methyl)-4-methylpentanoyl)-L-tryptophan]
79% | 84% | 4.3 ×10⁻⁶ cm/s | < 1 ×10⁻⁶ cm/s | – | > 12 | < 3.66 | < 3.66 | CC(C)C[C@H](CP(=O)(O)[C@H](CCc1ccccc1)NC(=O)OCc1ccccc1)C(=O)N[C@@H](Cc1c[nH]c2ccccc12)C(N)=O [compound 3, (2S)-2-((((1S)-2-amino-1-(1H-indol-3-ylmethyl)-2-oxo-ethyl)carbamoyl)-4-methyl-pentyl)-((1R)-1-(benzyloxycarbonylamino)-3-phenyl-propyl)phosphinic acid]
